Source: patent US20210338658A1, “MACROLIDE COMPOUNDS AND THEIR USE IN LIVER STAGE MALARIA AND RELATED DISEASE” (The Johns Hopkins University, priority 2014, published 2021)
pIC50: −log10 of the molar value. Entries after “also recorded” stand apart in the source; their conditions may differ.

Tests used:
[1] = over 5,000 humans, single day dosing; cited from earlier work
[2] = test system: P. berghei sporozoites; assay: In vivo liver stage assay (mouse liver parasite load by real-time PCR); settings: for effect on parasite growth in mice (in words): dose not given; for inhibitory effect on parasite proliferation in mice (in words): two doses 24 hours apart; for side effects in the mice: after two doses
Procedure: Approximately 10,000 sporozoites were inoculated by tail vein injection and mice were sacrificed 40 hours later, livers were harvested, placed in RNAzol and parasite levels determined by realtime PCR from cDNA from reverse transcription. Relative fluorescent units were compared to control to determine percent inhibition. Cethromycin (CET) was administered only once while the other drugs were given twice 24 hours apart from each dose. […] Error is standard error of mean of three mice with real time PCR performed in duplicate for transcript levels in each mouse.
Mice were kept in Johns Hopkins Bloomberg School of Public Health mouse facility according to the ACUC animal protocol number MO09H401. Six week old C57BL/6 mice weighing about 20-22 g were divided into groups of three. 12,000 P. berghei sporozoites in a 200 μL volume were injected into mice through tail veins. Two hours after injection, different dilutions of drugs in 100-200 μL volumes were delivered to mice by oral gavage using a plastic feeding tube. A second dose of drugs was given 24 hours after the first one to the mice that were on a daily dosing regimen. Approximately 40 hours post-infection, mice infected with P. berghei sporozoites were anesthetized by inhaling Metofane® and sacrificed for harvesting whole livers. Each mouse liver was immediately put into 10 mL of Trizol® Reagent and fully homogenized. After RNA isolation, the RNA was diluted to 100 ng/mL for reverse-transcription reactions. For a 30 μL reaction, the components were set up as: 3.5 μL of nuclease-free water, 3 μL of 10× Buffer II and 10 mM dNTPs, 6 μL of MgCl2 solution, 1.5 μL of 50 μM Random Hexamers, RNase Inhibitor and MuLV Reverse Transcriptase, 10 μL of RNA sample. cDNA products were stored at −20° C. For a 10 μL real-time quantitative PCR, the components were set up as: 0.2 μL of 10 μM forward and reverse primer 18s P. berghei, 5 μL of 2×SYBR Green PCR Master Mix, 1.6 μL of nuclease-free water, and 3 μL of cDNA sample. All test subjects were done in duplicates including positive and negative controls. When real-time PCR was finished, all data were baselined and normalized to the housekeeping gene before further analysis. The specific sequences of primers (The Core DNA Analysis Facility—JHU, Baltimore, Md.) were: 5′-[…]-3′ (SEQ ID NO: 1) and 5′-[…]-3′(SEQ ID NO: 2) for P. berghei ANKA 18s and 5′-[…]1TAGC-3′ (SEQ ID NO: 3) and 5′-[…]-3′ (SEQ ID NO: 4) for mouse HPRT.

[3] = test system: P. berghei sporozoites; assay: In vitro malaria liver stage assay (infected Hepa1-6 cells counted by anti-HSP70 immunofluorescence); format: cell-based, Plasmodium berghei; settings: for reduction of parasite multiplication / growth in vitro: 10 μM
Procedure: 3A. […] Error is standard error of the mean of duplicate wells performed in biologic replicate. 3B. […] 50,000 Hepa1-6 cells were seeded in each well 24 hours prior to infection with 50,000 P. berghei sporozoites. The 2E6 anti-HSP70 antibody was used for immunofluorescent numeration of infected cells.
Drugs were purchased from either Sigma or Ambinter. In each chamber of 8-well LabTek tissue culture slides, 50,000 mouse hepatoma cells, Hepa1-6, were seeded one day before infection. Cells were normally cultured in DMEM supplemented with 10% FBS, 1× L-glutamine and 1× Pen-Strep at 37° C. and 5% CO2. Once incubated with P. berghei sporozoites, the culture medium supplement was changed to 2.5% FBS, 1× L-glutamine and 2× Pen-Strep. Before treatment with drugs, the cells were washed four times with DMEM containing 10× Pen-Strep and 5 ug/mL fungicide. After 24 hours, fresh culture medium containing drugs was added to each chamber. Approximately 42 hours post-infection, the growth medium was removed and 100% cold methanol was added for 15 minutes to fix the cells. After washing with sterile PBS, cells were incubated in PBS with 5% FBS for blocking. Then 2E6 anti-HSP70 antibody was diluted to 10 μg/mL in PBS with 5% FBS and added in a 200 μL volume to cells. One hour later, cells were washed with PBS and incubated with 10 μg/mL Alexafour 594 anti-mouse secondary antibody. In order to visualize hepatocytes, nuclear counterstain DAPI was incubated with cells for 5 minutes and then washed off. The plastic chambers and silicone gasket were removed and slide was fully dried before mounted and sealed with cover slides. When preparation was complete, slide was taken to the fluorescence microscope for examination. Representative areas were randomly selected from each chamber and the numbers of infected cells were counted for a similar number of microscopic fields. The level of inhibition was determined by comparing the average of each chamber containing treated cells with that of the controls.
Five compounds were procured while cethromycin was synthesized. Cethromycin was directly synthesized from erythromycin by substituting the cladinose sugar at C3 with a keto-group, attaching a cyclic carbamate group at C11-C12, and tethering the quinoline moiety to the C6 alcohol. We used the in vitro P. berghei ANKA model on mouse hepatoma cells, Hepa1-6. […] Quinoline, erythromycin and their combination were also tested to investigate the role the quinoline plays in the antimalarial activity of cethromycin. […] Due to limited synthesized amounts of cethromycin, only one dose was given to mice while other drugs and compounds were administered twice.

[4] = test system: Plasmodium; settings: reference molecules of the training set; read-out: liver stage inhibition; cited from earlier work

Compound | effect on parasite growth in mice (in words) ([2]; oral gavage) | parasite inhibition in vitro (in words) ([3]; Hepa1-6 cells) | inhibitory effect on parasite proliferation in mice (in words) ([2]; 50 mg/kg) | side effects in the mice ([2]; 50 mg/kg) | other results
CC[C@H]1OC(=O)[C@H](C)C(=O)[C@H](C)[C@@H](O[C@@H]2O[C@H](C)C[C@H](N(C)C)[C@H]2O)[C@@](C)(OC/C=C/c2cnc3ccccc3c2)C[C@@H](C)C(=O)[C@H](C)[C@H]2NC(=O)O[C@@]21C [Cethromycin, (1R,2R,4R,6S,7R,8R,10R,13R,14S)-7-[(2S,3R,4S,6R)-4-(dimethylamino)-3-hydroxy-6-methyloxan-2-yl]oxy-13-ethyl-2,4,6,8,10,14-hexamethyl-6-[(E)-3-quinolin-3-ylprop-2-enoxy]-12,15-dioxa-17-azabicyclo[12.3.0]heptadecane-3,9,11,16-tetrone] | active | measurable inhibitory effect; also recorded: active | – | – | safety in humans [1]: used safely; inhibition of liver parasites in mice ([2]; 12 mg/kg, oral gavage): about 16%; reduction of parasite load in mouse liver ([2]; 50 mg/kg, oral gavage, one dose, liver 40 hours post-infection): 60%; effect on parasite load in mice (in words) ([2]; cethromycin 12 mg/kg): only partially effective; inhibition of liver stage malaria in vitro (reduction of parasite growth) ([3]; 20 μM, Hepa1-6 cells): 54%; inhibition at 20 µM ([3]; Plasmodium berghei, Hepa1-6, 20 μM, Hepa1-6 cells, read-out: inhibition of liver stage malaria in vitro (reduction of parasite growth)): 52%
O=C(COC(=O)c1cccnc1SCC(=O)Nc1cc(S(=O)(=O)N2CCOCC2)ccc1Cl)Nc1cc(S(=O)(=O)N2CCOCC2)ccc1Cl [T0507-9950, [2-(2-chloro-5-morpholin-4-ylsulfonylanilino)-2-oxoethyl] 2-[2-(2-chloro-5-morpholin-4-ylsulfonylanilino)-2-oxoethyl]sulfanylpyridine-3-carboxylate] | – | measurable inhibitory effect | significant inhibitory effect | without causing any notable side effects | –
O=C(/C=C/c1ccc(Cl)cc1Cl)Nc1cc(S(=O)(=O)N2CCCCC2)ccc1Cl [T0510-7064, (E)-N-(2-chloro-5-piperidin-1-ylsulfonylphenyl)-3-(2,4-dichlorophenyl)prop-2-enamide] | – | measurable inhibitory effect | significant inhibitory effect | without causing any notable side effects | reduction of parasite multiplication / growth in vitro ([3]; Hepa1-6 cells): 54%
CCN(CC)S(=O)(=O)c1cccc(-c2nnc(SC(C)C(=O)Nc3ccc(C)c(S(=O)(=O)N(CC)CC)c3)n2Cc2ccccc2)c1 (stereo not drawn) [T5531873, 2-[[4-benzyl-5-[3-(diethylsulfamoyl)phenyl]-1,2,4-triazol-3-yl]sulfanyl]-N-[3-(diethylsulfamoyl)-4-methylphenyl]propanamide] | – | measurable inhibitory effect | significant inhibitory effect | without causing any notable side effects | reduction of parasite multiplication / growth in vitro ([3]; Hepa1-6 cells): over 95%; inhibition of liver stage malaria in vitro ([3]; FIG. 3, concentration not given): ~95%
CC[C@H]1OC(=O)[C@H](C)[C@@H](O[C@H]2C[C@@](C)(OC)[C@@H](O)[C@H](C)O2)[C@H](C)[C@@H](O[C@@H]2O[C@H](C)C[C@H](N(C)C)[C@H]2O)[C@](C)(O)C[C@@H](C)C(=O)[C@H](C)[C@@H](O)[C@]1(C)O [erythromycin] | only marginal inhibitory effect; also recorded: no activity | Neither quinoline, nor erythromycin, nor their combination showed any parasite inhibition; also recorded: inactive; also recorded: no activity | – | – | –
CC[C@@]1([C@@H]2O[C@@H]([C@H]3O[C@@](O)(CO)[C@H](C)C[C@@H]3C)C[C@@H]2C)CC[C@H]([C@]2(C)CC[C@]3(C[C@H](O)[C@@H](C)[C@@H]([C@@H](C)[C@@H](OC)[C@H](C)C(=O)O)O3)O2)O1 [monensin] | – | – | – | – | pIC50 [4]: 12.00
COc1cc(NC(C)CCCN)c2ncccc2c1 (stereo not drawn) [primaquine] | – | – | – | – | inhibition of liver parasites in mice ([2]; primaquine 15 mg/kg, oral gavage): 83%
c1ccc2ncccc2c1 [quinoline] | only marginal inhibitory effect; also recorded: no activity | Neither quinoline, nor erythromycin, nor their combination showed any parasite inhibition; also recorded: inactive; also recorded: no activity | – | – | effect on parasite growth in mice (in words) ([2]; oral gavage, listed as quinolone): only marginal effect
